We go through one molecule from publication PMC11233931, “Remodeling tumor‐associated macrophage for anti‐cancer effects by rational design of irreversible inhibition of mitogen‐activated protein kinase‐activated protein kinase 2” (MedComm, 2024).

In experiment [1] the target is T1, 380 human recombinant protein kinases (Homo sapiens, UniProt Q12851).
T1 construct: purchased Eurofins (Celle Lévescault)
T1 sequence (Q12851 1-820): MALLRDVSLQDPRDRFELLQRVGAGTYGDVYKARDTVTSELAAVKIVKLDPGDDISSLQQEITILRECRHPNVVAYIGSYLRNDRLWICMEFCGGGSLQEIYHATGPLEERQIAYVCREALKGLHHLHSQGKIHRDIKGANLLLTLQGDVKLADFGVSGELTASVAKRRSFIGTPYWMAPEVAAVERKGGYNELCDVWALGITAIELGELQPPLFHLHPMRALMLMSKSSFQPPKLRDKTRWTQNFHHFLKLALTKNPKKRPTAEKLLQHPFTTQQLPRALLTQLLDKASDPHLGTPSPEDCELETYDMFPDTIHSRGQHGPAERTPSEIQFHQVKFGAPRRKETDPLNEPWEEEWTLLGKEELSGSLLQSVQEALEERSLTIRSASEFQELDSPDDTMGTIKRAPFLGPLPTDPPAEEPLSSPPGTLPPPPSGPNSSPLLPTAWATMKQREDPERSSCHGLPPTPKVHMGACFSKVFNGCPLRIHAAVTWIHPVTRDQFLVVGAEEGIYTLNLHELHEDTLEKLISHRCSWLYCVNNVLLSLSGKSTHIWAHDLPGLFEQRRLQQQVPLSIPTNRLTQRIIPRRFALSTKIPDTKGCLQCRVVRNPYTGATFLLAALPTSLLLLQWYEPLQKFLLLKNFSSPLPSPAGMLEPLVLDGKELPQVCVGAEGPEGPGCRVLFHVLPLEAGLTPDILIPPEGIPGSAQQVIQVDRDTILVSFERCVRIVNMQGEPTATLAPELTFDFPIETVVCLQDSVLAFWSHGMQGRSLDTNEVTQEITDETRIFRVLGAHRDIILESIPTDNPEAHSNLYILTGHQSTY
The experiment in a line: Eurofins kinase selectivity profile against 380 other human recombinant kinases (Table S2). The format is biochemical. Particulars: GCK(h), read-out: Inhibition rate. The method, boiled down:
(§1)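 To gauge specificity for MK2, the compound is profiled externally at various concentrations on recombinant human kinases, 380 in total.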

The target in experiment [2] is T2, 380 human recombinant protein kinases (Homo sapiens, UniProt Q06187, R28H).
T2 construct: purchased Eurofins (Celle Lévescault)
The experiment is described as above. The format is biochemical. Particulars: BTK(R28H)(h), read-out: Inhibition rate. In outline:
as §1

Experiment [3] has as its target T3, 380 human recombinant protein kinases (Homo sapiens, UniProt P05129).
T3 construct: purchased Eurofins (Celle Lévescault)
The experiment is described as above. The format is biochemical. Particulars: PKCγ(h), read-out: Inhibition rate. The method, boiled down: as §1

Experiment [4] concerns the target T4, 380 human recombinant protein kinases (Homo sapiens, UniProt P15056, V600E).
T4 construct: purchased Eurofins (Celle Lévescault)
The description is as above. Conditions: B-Raf(V599E)(h), read-out: Inhibition rate. The format is biochemical. In outline:
as §1

Experiment [5] has as its target T5, 380 human recombinant protein kinases (Homo sapiens, UniProt P28482).
T5 construct: purchased Eurofins (Celle Lévescault)
The experiment is described as above. The format is biochemical. Particulars: MAPK2(h), read-out: Inhibition rate. In outline:
as §1

The subject of experiment [6] is CD206 and Arg-1 expression in BMDM. The experiment in a line: Flow cytometry of CD206 and Arg-1 in IL-4/IL-13 stimulated BMDM. The format is cell-based, mouse. Particulars: IL-4/IL-13, 48 h. From the text:
A previous study has reported that MK2 fostered M2‐like polarization of TAMs, driving a protumor and proangiogenic phenotype which in turn accelerates tumor progression.[21] We thus assessed the influence of compound 11 on macrophage polarization and function. Our experiments used human THP‐1 monocyte induced macrophages, mouse RAW264.7 macrophages, and mouse bone marrow‐derived macrophages (BMDM). These cells were induced into M2‐like macrophages using the classic IL‐4 and IL‐13 stimuli.
FIGURE 5 Inhibition of pro‐tumorigenic M2‐like polarization in macrophages by compound 11. (A–C) RT‐PCR analysis highlights the impact of compound 11 on MRC1 and ARG‐1 mRNA expression in various macrophage cells treated with IL‐4/IL‐13 alone or combined with compound 11 for 12 h or 24 h. (D) CD206 and Arg‐1 expression in bone marrow‐derived macrophages (BMDM) cells via flow cytometry post 48 h treatment of compound 11 and IL‐4/IL‐13. (E) The treatment effects of compound 11 in THP‐1 cells using western blot analysis. Cells were pretreated with compound 11 for 1 h and followed by IL‐4/IL‐13 treatment (30 min). (F) The influence of MK2 siRNA on MRC1 and ARG‐1 mRNA expression in THP‐1 cells by RT‐PCR analysis post‐IL‐4/IL‐13 stimulation (12 h). […] Data are shown as the mean ± SD. ^* p < 0.05; ^*** p < 0.001 versus the vehicle group, determined by unpaired t test. […]
On the technique in general: A flow cytometer gives signals particle by particle.

T5 sequence (P28482 whole entry): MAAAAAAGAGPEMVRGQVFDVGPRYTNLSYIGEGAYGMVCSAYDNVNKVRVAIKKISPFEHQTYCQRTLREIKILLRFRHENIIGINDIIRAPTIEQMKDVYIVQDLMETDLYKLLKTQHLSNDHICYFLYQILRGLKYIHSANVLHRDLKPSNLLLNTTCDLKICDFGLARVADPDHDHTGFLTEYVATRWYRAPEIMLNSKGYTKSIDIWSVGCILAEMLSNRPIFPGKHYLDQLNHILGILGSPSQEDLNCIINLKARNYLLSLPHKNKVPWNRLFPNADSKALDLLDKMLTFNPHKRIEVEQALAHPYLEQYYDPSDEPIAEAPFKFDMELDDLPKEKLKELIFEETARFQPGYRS
T2 sequence (Q06187 whole entry R28H): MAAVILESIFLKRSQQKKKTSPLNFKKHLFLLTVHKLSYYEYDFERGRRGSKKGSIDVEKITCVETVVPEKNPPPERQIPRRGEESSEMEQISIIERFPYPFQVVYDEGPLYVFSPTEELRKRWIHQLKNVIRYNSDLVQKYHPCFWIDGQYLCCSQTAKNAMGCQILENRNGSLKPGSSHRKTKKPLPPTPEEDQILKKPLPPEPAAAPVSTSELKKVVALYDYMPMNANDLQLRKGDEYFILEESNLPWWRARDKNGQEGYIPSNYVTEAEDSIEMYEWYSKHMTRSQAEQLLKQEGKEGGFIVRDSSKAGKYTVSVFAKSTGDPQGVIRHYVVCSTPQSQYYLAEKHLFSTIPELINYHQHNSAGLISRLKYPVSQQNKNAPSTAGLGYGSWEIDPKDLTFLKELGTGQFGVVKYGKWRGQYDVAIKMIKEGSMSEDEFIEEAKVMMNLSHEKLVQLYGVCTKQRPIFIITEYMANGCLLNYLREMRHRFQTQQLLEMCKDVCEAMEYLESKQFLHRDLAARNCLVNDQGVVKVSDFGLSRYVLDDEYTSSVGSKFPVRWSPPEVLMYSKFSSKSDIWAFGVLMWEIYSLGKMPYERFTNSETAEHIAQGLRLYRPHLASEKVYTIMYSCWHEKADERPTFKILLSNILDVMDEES
T4 sequence (P15056 whole entry V600E): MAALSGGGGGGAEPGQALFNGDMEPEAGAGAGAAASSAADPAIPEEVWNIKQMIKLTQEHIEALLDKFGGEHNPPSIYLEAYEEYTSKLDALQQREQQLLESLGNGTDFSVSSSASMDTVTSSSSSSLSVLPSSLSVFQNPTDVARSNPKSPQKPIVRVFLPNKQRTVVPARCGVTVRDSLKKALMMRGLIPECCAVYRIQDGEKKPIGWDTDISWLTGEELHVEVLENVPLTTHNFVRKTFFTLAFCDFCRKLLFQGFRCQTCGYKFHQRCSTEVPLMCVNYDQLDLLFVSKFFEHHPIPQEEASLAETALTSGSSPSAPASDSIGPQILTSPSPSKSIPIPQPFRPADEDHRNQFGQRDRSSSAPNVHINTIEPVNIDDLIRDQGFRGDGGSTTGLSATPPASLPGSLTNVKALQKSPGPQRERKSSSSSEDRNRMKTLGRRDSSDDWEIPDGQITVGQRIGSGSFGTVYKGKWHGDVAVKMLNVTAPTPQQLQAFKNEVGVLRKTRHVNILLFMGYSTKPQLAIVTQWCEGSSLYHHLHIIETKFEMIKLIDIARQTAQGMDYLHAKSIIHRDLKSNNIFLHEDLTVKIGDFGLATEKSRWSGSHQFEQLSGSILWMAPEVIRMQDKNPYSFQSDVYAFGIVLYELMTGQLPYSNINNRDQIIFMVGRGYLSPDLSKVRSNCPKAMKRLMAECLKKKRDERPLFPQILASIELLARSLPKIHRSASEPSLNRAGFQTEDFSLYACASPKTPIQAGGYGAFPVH

As for `C=CC(=O)Nc1cc(-c2cc(-c3cc4c([nH]3)CCNC4=O)ccn2)ccc1OC(F)(F)F` [compound 11], the inhibition (as a rule, the drop in the measured response relative to a control, in per cent) at 0.01 µM in experiment [1] (10 nM) was -2%; in experiment [2] (10 nM) it was -27%; in experiment [3] (10 nM), 7%; in experiment [4] (10 nM), -6%; in experiment [5] (10 nM), -5%. For the same molecule, the inhibition at 0.1 µM is -9% in experiment [1] (100 nM); 6% in experiment [2] (100 nM); 5% in experiment [3] (100 nM); -14% in experiment [4] (100 nM); -7% in experiment [5] (100 nM). The inhibition at 1 µM in experiment [1] (1000 nM) is 17%; in experiment [2] (1000 nM) it was 1%; in experiment [3] (1000 nM), 14%; in experiment [4] (1000 nM) it was -2%; in experiment [5] (1000 nM) it was 13%. Moreover, the “effect on expression levels of surface CD206 and Arg-1” value in experiment [6] is listed as “suppress”.
